Source: patent publication US20250255304A1, “HIGHLY TRA[…] CONTROLLING COMPOSITION” (ZM Crop Protection Corporation, priority 2022, published 2025)

Experiments:
Type in all cases: in vivo
[1] = tested on: Coptotermes formosanus Shiraki; assay: Test Example 3: extirpation test with dust formulation using simulated termite trails; details: active ingredient concentration 50%
[2] = tested on: Coptotermes formosanus Shiraki; assay: Test Example 2: primary transmission treatment effect
Procedure: (§1) A test agent solution containing 0.023 parts of dicloromezotiaz was prepared by adding 99.875 parts of water to 0.125 parts of the aqueous suspension composition shown in Formulation Example 1. As comparative examples, four types of commercially available neonicotinoid termite controlling agents and four types of slow-acting termite controlling agents shown in Table 2 were diluted with water at practical concentrations to prepare test agent solutions. The “agent concentration (%)” indicates the concentration of the active ingredient contained in each of the composition of the present invention and the termite controlling agents and the “test agent solution concentration (%)” indicates the concentration of the active ingredient in each of the prepared test agent solutions.
(§2) After 1.2 g of each of the test agent solutions of the example and the comparative examples diluted to a predetermined concentration and prepared was added to 4.8 g of soil, 6 g of the mixed soil was spread in a glass petri dish having a diameter of 50 mm and ten workers of Coptotermes formosanus Shiraki were released into the petri dish and exposed to the agent solution for 4 hours.

[3] = tested on: Coptotermes formosanus Shiraki; assay: Test Example 2: secondary transmission treatment effect
Procedure: as §1, §2

[4] = tested on: Coptotermes formosanus Shiraki; assay: Test Example 1: effect of agent on gypsum treated with test agent solution; details: dicloromezotiaz 0.023%, imidacloprid 0.1%, fipronil 0.03% test agent solution on gypsum
Procedure: A test agent solution containing 0.023 parts of dicloromezotiaz was prepared by adding 99.875 parts of water to 0.125 parts of the aqueous suspension composition shown in Formulation Example 1.
In a comparative example, an aqueous suspension composition prepared by adding an agent solution, wherein 99 parts of water was added to 1 part of a flowable containing 10.0 parts of imidacloprid and which contained 0.1 parts of imidacloprid and a drug solution, wherein 299 parts of water was added to 1 part of a flowable containing 9.1 parts of fipronil and which contained 0.03 parts of fipronil, uniformly mixing same was used as a test agent solution of a comparative example.
As the imidacloprid formulation and the fipronil formulation, commercially available termite controlling agents were used and diluted solutions at practical agent concentrations thereof were used as test agent solutions.
Gypsum was cured and spread in a glass petri dish having a diameter of 90 mm, 15 ml of each of the test agent solution of the example and the test agent solution of the comparative example was uniformly dropped on the entire surface of the gypsum. Thereafter, ten workers of Coptotermes formosanus Shiraki were released into the petri dish and the petri dish was covered and left to stand in a thermostatic chamber (25° C./relative humidity 60%).
The number of abnormal termites and the number of dead termites among the released termites (Coptotermes formosanus Shiraki) were observed every one hour from immediately after the release of the termites (Coptotermes formosanus Shiraki) until ten hours passed and the total number of the abnormal termite rate and the dead termite rate was calculated as the abnormal or dead termite rate (%) according to [Expression 1] below and the rates of expression of the effects of the respective agents were compared. Each test agent was prepared in one petri dish as one plot and the test was carried out in two replicates.

[5] = after 1 day, Table 4, dicloromezotiaz 0.023%, chlorfenapyr 0.11%, clothianidin 0.05%, dinotefuran 0.20%, thiamethoxam 0.10%, broflanilide 0.03% solution in soil
[6] = after 3 days, Table 4, dicloromezotiaz 0.023%, chlorfenapyr 0.11%, clothianidin 0.05%, dinotefuran 0.20%, thiamethoxam 0.10%, broflanilide 0.03% solution in soil
[7] = after 7 days, Table 4, dicloromezotiaz 0.023%, chlorfenapyr 0.11%, clothianidin 0.05%, dinotefuran 0.20%, thiamethoxam 0.10%, broflanilide 0.03% solution in soil
[8] = after 14 days, Table 4, dicloromezotiaz 0.023%, chlorfenapyr 0.11%, clothianidin 0.05%, dinotefuran 0.20%, thiamethoxam 0.10%, broflanilide 0.03% solution in soil
[9] = after 21 days, Table 4, dicloromezotiaz 0.023%, chlorfenapyr 0.11%, clothianidin 0.05%, dinotefuran 0.20%, thiamethoxam 0.10%, broflanilide 0.03% solution in soil
[10] = after 1 day, Table 6, dicloromezotiaz 0.023%, chlorfenapyr 0.11%, clothianidin 0.05%, dinotefuran 0.20%, thiamethoxam 0.10%, broflanilide 0.03% solution in soil
[11] = after 3 days, Table 6, dicloromezotiaz 0.023%, chlorfenapyr 0.11%, clothianidin 0.05%, dinotefuran 0.20%, thiamethoxam 0.10%, broflanilide 0.03% solution in soil
[12] = after 7 days, Table 6, dicloromezotiaz 0.023%, chlorfenapyr 0.11%, clothianidin 0.05%, dinotefuran 0.20%, thiamethoxam 0.10%, broflanilide 0.03% solution in soil
[13] = after 14 days, Table 6, dicloromezotiaz 0.023%, chlorfenapyr 0.11%, clothianidin 0.05%, dinotefuran 0.20%, thiamethoxam 0.10%, broflanilide 0.03% solution in soil
[14] = after 21 days, Table 6, dicloromezotiaz 0.023%, chlorfenapyr 0.11%, clothianidin 0.05%, dinotefuran 0.20%, thiamethoxam 0.10%, broflanilide 0.03% solution in soil
[15] = after 1 day, Table 3, dicloromezotiaz 0.023%, fipronil 0.03%, imidacloprid 0.10%, chlorantraniliprole 0.05% solution in soil
[16] = after 3 days, Table 3, dicloromezotiaz 0.023%, fipronil 0.03%, imidacloprid 0.10%, chlorantraniliprole 0.05% solution in soil
[17] = after 7 days, Table 3, dicloromezotiaz 0.023%, fipronil 0.03%, imidacloprid 0.10%, chlorantraniliprole 0.05% solution in soil
[18] = after 14 days, Table 3, dicloromezotiaz 0.023%, fipronil 0.03%, imidacloprid 0.10%, chlorantraniliprole 0.05% solution in soil
[19] = after 21 days, Table 3, dicloromezotiaz 0.023%, fipronil 0.03%, imidacloprid 0.10%, chlorantraniliprole 0.05% solution in soil
[20] = after 1 day, Table 5, dicloromezotiaz 0.023%, fipronil 0.03%, imidacloprid 0.10%, chlorantraniliprole 0.05% solution in soil
[21] = after 3 days, Table 5, dicloromezotiaz 0.023%, fipronil 0.03%, imidacloprid 0.10%, chlorantraniliprole 0.05% solution in soil
[22] = after 7 days, Table 5, dicloromezotiaz 0.023%, fipronil 0.03%, imidacloprid 0.10%, chlorantraniliprole 0.05% solution in soil
[23] = after 14 days, Table 5, dicloromezotiaz 0.023%, fipronil 0.03%, imidacloprid 0.10%, chlorantraniliprole 0.05% solution in soil
[24] = after 21 days, Table 5, dicloromezotiaz 0.023%, fipronil 0.03%, imidacloprid 0.10%, chlorantraniliprole 0.05% solution in soil

| Structure (SMILES) | Abnormal or dead termite rate (%) [2, 5] | Abnormal or dead termite rate (%) [2, 6] | Abnormal or dead termite rate (%) [2, 7] | Abnormal or dead termite rate (%) [2, 8] | Abnormal or dead termite rate (%) [2, 9] | Abnormal or dead termite rate (%) [3, 10] | Abnormal or dead termite rate (%) [3, 11] | Abnormal or dead termite rate (%) [3, 12] | Abnormal or dead termite rate (%) [3, 13] | Abnormal or dead termite rate (%) [3, 14] | also measured |
| --- | --- | --- | --- | --- | --- | --- | --- | --- | --- | --- | --- |
| N#Cc1ccc(CC(=NNC(=O)Nc2ccc(OC(F)(F)F)cc2)c2cccc(C(F)(F)F)c2)cc1 (mixture of isomers) [Metaflumizone, metaflumizone] | – | – | – | – | – | – | – | – | – | – | Abnormal or dead termite rate (%) ([1]; 1 h): 0%; Abnormal or dead termite rate (%) ([1]; 2 h): 0%; Abnormal or dead termite rate (%) ([1]; 3 h): 0%; Abnormal or dead termite rate (%) ([1]; 4 h): 0%; Abnormal or dead termite rate (%) ([1]; 5 h): 0%; Abnormal or dead termite rate (%) ([1]; 6 h): 0%; Abnormal or dead termite rate (%) ([1]; 7 h): 0%; Abnormal or dead termite rate (%) ([1]; 1 day): 100%; Abnormal or dead termite rate (%) ([1]; 2 days): 100%; Abnormal or dead termite rate (%) ([1]; 3 days): 100%; Abnormal or dead termite rate (%) ([1]; 7 days): 100% |
| CN1COCN(Cc2cnc(Cl)s2)/C1=N\[N+](=O)[O-] [Thiamethoxam] | 98% | 91% | 98% | 95% | 96% | 0% | 0% | 3.3% | 3.3% | 4.4% | – |
| CN/C(=N\[N+](=O)[O-])NCc1cnc(Cl)s1 [Clothianidin] | 94% | 89% | 75% | 91% | 94% | 0% | 0% | 3.3% | 3.3% | 4.4% | – |
| CNC(=O)c1cc(Cl)cc(C)c1NC(=O)c1cc(Br)nn1-c1ncccc1Cl [Chlorantraniliprole] | – | – | – | – | – | – | – | – | – | – | Abnormal or dead termite rate (%) [2, 15]: 98%; Abnormal or dead termite rate (%) [2, 16]: 100%; Abnormal or dead termite rate (%) [2, 17]: 85%; Abnormal or dead termite rate (%) [2, 18]: 80%; Abnormal or dead termite rate (%) [2, 19]: 85%; Abnormal or dead termite rate (%) [3, 20]: 10%; Abnormal or dead termite rate (%) [3, 21]: 2.2%; Abnormal or dead termite rate (%) [3, 22]: 1.1%; Abnormal or dead termite rate (%) [3, 23]: 2.2%; Abnormal or dead termite rate (%) [3, 24]: 7.8% |
| O=[N+]([O-])NC1=NCCN1Cc1ccc(Cl)nc1 [Imidacloprid] | – | – | – | – | – | – | – | – | – | – | Abnormal or dead termite rate (%) ([4]; time elapsed 1 h): 100%; Abnormal or dead termite rate (%) ([4]; time elapsed 2 h): 100%; Abnormal or dead termite rate (%) ([4]; time elapsed 3 h): 100%; Abnormal or dead termite rate (%) ([4]; time elapsed 4 h): 100%; Abnormal or dead termite rate (%) ([4]; time elapsed 5 h): 100%; Abnormal or dead termite rate (%) ([4]; time elapsed 6 h): 100%; Abnormal or dead termite rate (%) ([4]; time elapsed 7 h): 100%; Abnormal or dead termite rate (%) ([4]; time elapsed 8 h): 100%; Abnormal or dead termite rate (%) ([4]; time elapsed 9 h): 100%; Abnormal or dead termite rate (%) ([4]; time elapsed 10 h): 100%; Abnormal or dead termite rate (%) [2, 15]: 92%; Abnormal or dead termite rate (%) [2, 16]: 22%; Abnormal or dead termite rate (%) [2, 17]: 11%; Abnormal or dead termite rate (%) [2, 18]: 14%; Abnormal or dead termite rate (%) [2, 19]: 15%; Abnormal or dead termite rate (%) [3, 20]: 0%; Abnormal or dead termite rate (%) [3, 21]: 1.1%; Abnormal or dead termite rate (%) [3, 22]: 1.1%; Abnormal or dead termite rate (%) [3, 23]: 1.1%; Abnormal or dead termite rate (%) [3, 24]: 1.2% |
| CCOCn1c(-c2ccc(Cl)cc2)c(C#N)c(Br)c1C(F)(F)F [Chlorfenapyr] | 89% | 80% | 89% | 100% | 100% | 0% | 0% | 3.3% | 7.8% | 31% | – |
| CN(C(=O)c1ccccc1)c1cccc(C(=O)Nc2c(Br)cc(C(F)(C(F)(F)F)C(F)(F)F)cc2C(F)(F)F)c1F [Broflanilide] | 100% | 73% | 48% | 53% | 56% | 2.2% | 0% | 3.3% | 5.6% | 6.7% | – |
| CN/C(=N/CC1CCOC1)N[N+](=O)[O-] (stereo not shown) [Dinotefuran] | 93% | 94% | 96% | 98% | 99% | 24% | 18% | 16% | 18% | 22% | – |
